Measurements taken from article PMC8617627, “Novel DYRK1A Inhibitor Rescues Learning and Memory Deficits in a Mouse Model of Down Syndrome” (Pharmaceuticals, 2021).
Where two headings read alike, the source gives them in different places.

Key:
Assay in all cases: Kinase profile (33P ATP filter binding)
Type in all cases: biochemical
ROCK 2 = ROCK 2 (Homo sapiens, UniProt O75116); settings: read-out: Remaining protein kinase activity
IRAK1 = IRAK1 (Homo sapiens, UniProt P51617); settings: read-out: Remaining protein kinase activity
DAPK1 = DAPK1 (Homo sapiens, UniProt P53355); settings: read-out: Remaining protein kinase activity
MAPKAP-K2 = MAPKAP-K2 (Homo sapiens, UniProt P49137); settings: read-out: Remaining protein kinase activity
SIK2 = SIK2 (Homo sapiens, UniProt Q9H0K1); settings: read-out: Remaining protein kinase activity
CHK1 = molecular target: T1, CHK1 (Homo sapiens, UniProt O14757)
T1 sequence (O14757 1-476): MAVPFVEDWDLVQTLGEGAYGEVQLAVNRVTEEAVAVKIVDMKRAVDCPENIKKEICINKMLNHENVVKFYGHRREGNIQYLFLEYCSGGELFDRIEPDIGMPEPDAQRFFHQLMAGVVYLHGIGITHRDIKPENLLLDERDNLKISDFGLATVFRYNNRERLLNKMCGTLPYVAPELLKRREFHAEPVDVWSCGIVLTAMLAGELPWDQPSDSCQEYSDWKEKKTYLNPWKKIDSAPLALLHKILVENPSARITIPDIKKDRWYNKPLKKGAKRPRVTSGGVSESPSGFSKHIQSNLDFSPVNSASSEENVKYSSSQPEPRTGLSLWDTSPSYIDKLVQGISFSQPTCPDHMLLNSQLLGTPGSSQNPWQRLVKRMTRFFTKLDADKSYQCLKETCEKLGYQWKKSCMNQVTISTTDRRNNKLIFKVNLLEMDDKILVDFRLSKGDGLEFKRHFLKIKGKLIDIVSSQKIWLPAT

SRPK1 = SRPK1 (Homo sapiens, UniProt Q96SB4); settings: read-out: Remaining protein kinase activity
PLK1 = PLK1 (Homo sapiens, UniProt P53350); settings: read-out: Remaining protein kinase activity
PKBb = PKBb (Homo sapiens, UniProt P31751); settings: read-out: Remaining protein kinase activity
MST3 = MST3 (Homo sapiens, UniProt Q9Y6E0)
EF2K = molecular target: T2, EF2K (Homo sapiens, UniProt O00418); settings: read-out: Remaining protein kinase activity
T2 sequence (O00418 1-725): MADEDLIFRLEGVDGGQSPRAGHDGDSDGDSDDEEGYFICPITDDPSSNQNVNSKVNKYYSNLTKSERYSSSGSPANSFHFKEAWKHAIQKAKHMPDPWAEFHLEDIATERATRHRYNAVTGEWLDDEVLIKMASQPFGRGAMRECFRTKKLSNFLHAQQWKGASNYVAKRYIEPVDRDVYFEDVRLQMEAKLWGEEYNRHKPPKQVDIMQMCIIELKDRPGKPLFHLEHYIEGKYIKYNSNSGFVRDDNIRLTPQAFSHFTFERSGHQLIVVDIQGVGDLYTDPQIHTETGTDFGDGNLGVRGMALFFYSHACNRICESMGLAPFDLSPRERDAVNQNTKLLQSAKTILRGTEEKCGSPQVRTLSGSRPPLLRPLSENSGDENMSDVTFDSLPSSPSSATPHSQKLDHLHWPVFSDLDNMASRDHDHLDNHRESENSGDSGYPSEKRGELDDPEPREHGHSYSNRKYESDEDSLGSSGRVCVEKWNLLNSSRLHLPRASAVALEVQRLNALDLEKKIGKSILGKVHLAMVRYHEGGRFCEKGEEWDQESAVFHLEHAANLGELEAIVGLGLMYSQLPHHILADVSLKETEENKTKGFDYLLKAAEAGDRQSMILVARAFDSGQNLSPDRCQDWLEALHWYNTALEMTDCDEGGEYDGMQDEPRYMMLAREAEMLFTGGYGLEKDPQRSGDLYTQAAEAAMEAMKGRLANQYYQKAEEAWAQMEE

IGF-1R = IGF-1R (Homo sapiens, UniProt P08069); settings: read-out: Remaining protein kinase activity
Aurora B = Aurora B (Homo sapiens, UniProt Q96GD4); settings: read-out: Remaining protein kinase activity
Chain of Aurora B (Q96GD4 whole entry): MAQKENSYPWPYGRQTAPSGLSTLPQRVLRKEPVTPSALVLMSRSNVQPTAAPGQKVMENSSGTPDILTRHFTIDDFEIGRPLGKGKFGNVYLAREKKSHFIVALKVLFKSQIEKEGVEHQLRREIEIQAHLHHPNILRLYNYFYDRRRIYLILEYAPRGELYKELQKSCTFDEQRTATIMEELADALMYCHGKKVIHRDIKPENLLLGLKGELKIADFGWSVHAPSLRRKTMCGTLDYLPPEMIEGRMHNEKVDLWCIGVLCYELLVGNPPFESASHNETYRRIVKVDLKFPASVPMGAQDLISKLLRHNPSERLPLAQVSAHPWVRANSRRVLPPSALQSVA

Chain of MAPKAP-K2 (P49137 whole entry): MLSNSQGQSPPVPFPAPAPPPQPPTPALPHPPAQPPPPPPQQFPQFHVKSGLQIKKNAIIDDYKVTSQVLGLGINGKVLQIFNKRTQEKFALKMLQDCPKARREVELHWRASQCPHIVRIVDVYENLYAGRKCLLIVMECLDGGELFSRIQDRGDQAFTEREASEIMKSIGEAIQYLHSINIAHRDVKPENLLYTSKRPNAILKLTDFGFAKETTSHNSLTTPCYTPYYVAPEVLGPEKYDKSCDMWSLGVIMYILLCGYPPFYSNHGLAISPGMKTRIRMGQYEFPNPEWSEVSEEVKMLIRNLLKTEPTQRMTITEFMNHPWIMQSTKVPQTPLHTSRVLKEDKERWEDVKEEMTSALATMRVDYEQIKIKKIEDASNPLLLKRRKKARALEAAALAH
Chain of SIK2 (Q9H0K1 whole entry): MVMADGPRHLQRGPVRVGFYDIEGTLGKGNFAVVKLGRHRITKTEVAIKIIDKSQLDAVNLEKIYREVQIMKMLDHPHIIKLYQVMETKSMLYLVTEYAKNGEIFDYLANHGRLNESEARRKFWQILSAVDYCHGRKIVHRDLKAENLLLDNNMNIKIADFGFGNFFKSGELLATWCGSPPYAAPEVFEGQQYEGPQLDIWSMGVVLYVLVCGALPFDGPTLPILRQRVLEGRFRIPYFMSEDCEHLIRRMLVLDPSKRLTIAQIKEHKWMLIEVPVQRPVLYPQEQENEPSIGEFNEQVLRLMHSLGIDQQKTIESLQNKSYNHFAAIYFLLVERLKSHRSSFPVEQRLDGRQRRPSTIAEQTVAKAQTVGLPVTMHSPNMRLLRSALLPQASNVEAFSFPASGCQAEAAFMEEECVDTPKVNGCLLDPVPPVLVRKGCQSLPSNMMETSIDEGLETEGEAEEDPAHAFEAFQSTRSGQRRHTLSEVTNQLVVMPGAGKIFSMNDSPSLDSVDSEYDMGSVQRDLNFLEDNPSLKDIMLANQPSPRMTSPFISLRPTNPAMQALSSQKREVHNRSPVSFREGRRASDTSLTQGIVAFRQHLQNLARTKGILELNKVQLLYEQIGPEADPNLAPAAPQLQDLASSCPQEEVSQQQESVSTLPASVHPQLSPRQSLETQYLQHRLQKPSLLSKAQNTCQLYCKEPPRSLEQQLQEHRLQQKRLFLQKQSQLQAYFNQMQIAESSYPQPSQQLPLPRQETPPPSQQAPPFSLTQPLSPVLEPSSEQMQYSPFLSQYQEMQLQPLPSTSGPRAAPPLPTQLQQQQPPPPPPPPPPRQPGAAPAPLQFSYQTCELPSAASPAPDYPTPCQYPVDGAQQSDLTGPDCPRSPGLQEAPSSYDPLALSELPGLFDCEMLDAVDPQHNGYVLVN
Chain of PKBb (P31751 whole entry): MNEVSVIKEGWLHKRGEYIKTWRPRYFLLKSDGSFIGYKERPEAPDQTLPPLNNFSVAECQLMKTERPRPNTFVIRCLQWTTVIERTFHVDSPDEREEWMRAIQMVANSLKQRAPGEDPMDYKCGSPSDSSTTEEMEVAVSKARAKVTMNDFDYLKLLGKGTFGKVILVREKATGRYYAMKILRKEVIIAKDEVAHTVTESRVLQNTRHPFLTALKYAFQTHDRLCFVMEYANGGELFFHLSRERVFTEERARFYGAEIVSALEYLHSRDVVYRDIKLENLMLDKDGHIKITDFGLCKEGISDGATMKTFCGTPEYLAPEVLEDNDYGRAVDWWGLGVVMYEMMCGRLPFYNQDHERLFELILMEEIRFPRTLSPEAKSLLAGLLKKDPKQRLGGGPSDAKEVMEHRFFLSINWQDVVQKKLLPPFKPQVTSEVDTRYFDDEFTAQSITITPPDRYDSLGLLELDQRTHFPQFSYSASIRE
Chain of ROCK 2 (O75116 whole entry, species assumed): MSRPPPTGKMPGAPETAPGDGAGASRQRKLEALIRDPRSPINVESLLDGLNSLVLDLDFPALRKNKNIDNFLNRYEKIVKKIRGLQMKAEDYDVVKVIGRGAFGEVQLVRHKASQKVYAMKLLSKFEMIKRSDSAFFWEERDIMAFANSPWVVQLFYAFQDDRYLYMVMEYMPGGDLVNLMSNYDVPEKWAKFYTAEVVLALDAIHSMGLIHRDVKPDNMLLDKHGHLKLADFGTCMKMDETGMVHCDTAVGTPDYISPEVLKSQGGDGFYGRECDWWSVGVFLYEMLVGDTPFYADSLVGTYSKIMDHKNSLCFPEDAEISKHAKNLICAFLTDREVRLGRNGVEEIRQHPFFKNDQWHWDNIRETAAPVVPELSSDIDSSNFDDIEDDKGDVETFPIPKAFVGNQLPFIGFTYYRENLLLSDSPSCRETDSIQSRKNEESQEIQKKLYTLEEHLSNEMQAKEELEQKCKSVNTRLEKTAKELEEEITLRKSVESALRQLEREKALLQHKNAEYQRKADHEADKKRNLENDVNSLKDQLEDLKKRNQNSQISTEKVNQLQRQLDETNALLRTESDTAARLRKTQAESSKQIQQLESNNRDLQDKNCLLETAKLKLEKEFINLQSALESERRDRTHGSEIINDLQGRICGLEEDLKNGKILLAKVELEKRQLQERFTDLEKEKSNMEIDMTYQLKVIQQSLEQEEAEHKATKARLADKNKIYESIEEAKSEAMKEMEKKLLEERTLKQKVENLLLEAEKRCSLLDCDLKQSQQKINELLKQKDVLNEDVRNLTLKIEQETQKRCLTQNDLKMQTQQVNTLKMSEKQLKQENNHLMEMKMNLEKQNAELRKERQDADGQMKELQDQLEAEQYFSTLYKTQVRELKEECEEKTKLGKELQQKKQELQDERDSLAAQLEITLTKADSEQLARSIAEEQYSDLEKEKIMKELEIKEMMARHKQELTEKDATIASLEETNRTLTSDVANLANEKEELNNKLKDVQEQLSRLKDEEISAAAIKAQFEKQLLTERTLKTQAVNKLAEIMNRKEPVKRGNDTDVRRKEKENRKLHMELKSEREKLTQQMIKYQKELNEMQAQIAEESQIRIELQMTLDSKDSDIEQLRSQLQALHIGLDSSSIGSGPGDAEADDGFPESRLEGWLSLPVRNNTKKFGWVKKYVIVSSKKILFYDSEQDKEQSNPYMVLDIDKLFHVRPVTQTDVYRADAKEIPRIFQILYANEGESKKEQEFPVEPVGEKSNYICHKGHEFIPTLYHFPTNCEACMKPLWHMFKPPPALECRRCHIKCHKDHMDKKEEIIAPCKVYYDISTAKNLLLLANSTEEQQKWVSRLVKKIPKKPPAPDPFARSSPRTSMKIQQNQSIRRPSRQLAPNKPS
Chain of PLK1 (P53350 whole entry): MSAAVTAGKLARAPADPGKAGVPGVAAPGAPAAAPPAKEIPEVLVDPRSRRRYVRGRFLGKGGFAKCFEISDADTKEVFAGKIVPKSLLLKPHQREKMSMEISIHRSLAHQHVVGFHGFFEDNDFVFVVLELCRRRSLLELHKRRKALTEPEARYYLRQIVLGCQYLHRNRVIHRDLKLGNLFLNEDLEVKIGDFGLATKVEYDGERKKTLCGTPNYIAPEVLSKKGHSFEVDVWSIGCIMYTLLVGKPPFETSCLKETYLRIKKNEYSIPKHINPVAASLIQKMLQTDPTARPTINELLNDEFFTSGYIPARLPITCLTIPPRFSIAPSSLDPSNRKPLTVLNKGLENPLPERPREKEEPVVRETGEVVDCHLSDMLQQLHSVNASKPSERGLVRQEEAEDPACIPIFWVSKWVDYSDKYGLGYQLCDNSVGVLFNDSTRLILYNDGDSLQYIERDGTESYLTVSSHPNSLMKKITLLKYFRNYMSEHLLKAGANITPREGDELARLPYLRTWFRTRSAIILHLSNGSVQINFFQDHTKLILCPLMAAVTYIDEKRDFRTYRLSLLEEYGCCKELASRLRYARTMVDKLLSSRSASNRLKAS
Chain of MST3 (Q9Y6E0 whole entry): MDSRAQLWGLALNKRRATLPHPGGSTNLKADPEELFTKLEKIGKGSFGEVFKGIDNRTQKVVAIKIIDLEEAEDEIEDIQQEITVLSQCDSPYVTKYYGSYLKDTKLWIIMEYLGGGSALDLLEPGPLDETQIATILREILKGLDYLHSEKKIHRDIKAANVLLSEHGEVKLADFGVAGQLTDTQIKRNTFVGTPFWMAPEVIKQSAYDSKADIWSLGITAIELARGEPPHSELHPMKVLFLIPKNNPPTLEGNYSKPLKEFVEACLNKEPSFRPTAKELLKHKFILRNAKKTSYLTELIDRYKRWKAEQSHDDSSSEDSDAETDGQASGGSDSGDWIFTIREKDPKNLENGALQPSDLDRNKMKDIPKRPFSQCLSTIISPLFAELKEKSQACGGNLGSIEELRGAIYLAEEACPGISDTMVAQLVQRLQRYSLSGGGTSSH

COc1ccc2sc(-c3cncc(NC(C)=O)c3)nc2c1 [PST-001, N-(5-(5-Methoxybenzo[d]thiazol-2-yl)pyridin-3-yl)acetamide]
remaining activity at 1 µM (ROCK 2): 110%
remaining activity at 100 µM (ROCK 2): 64%
remaining activity at 1 µM (IRAK1): 103%
remaining activity at 100 µM (IRAK1): 93%
remaining activity at 1 µM (DAPK1): 114%
remaining activity at 100 µM (DAPK1): 101%
remaining activity at 1 µM (MAPKAP-K2): 109%
remaining activity at 100 µM (MAPKAP-K2): 111%
remaining activity at 1 µM (SIK2): 112%
remaining activity at 100 µM (SIK2): 65%
Remaining protein kinase activity (CHK1; 1 μM): 104%
Remaining protein kinase activity (CHK1; 100 μM): 115%
remaining activity at 1 µM (SRPK1): 115%
remaining activity at 100 µM (SRPK1): 108%
remaining activity at 1 µM (PLK1): 112%
remaining activity at 100 µM (PLK1): 115%
remaining activity at 1 µM (PKBb): 112%
remaining activity at 100 µM (PKBb): 98%
Remaining protein kinase activity (MST3; 1 μM): 118%
Remaining protein kinase activity (MST3; 100 μM): 113%
remaining activity at 1 µM (EF2K): 113%
remaining activity at 100 µM (EF2K): 106%
remaining activity at 1 µM (IGF-1R): 104%
remaining activity at 100 µM (IGF-1R): 104%
remaining activity at 1 µM (Aurora B): 106%
remaining activity at 100 µM (Aurora B): 24%

COc1ccc2sc(-c3cncc(N)c3)nc2c1 [compound 1, 5-(5-Methoxybenzo[d]thiazol-2-yl)pyridin-3-amine]
remaining activity at 1 µM (ROCK 2; ROCK 2, 1 μM): 108%
remaining activity at 100 µM (ROCK 2; ROCK 2, 100 μM): 5%
remaining activity at 1 µM (IRAK1; IRAK1, 1 μM): 95%
remaining activity at 100 µM (IRAK1; IRAK1, 100 μM): 24%
remaining activity at 1 µM (DAPK1; DAPK1, 1 μM): 103%
remaining activity at 100 µM (DAPK1; DAPK1, 100 μM): 58%
remaining activity at 1 µM (MAPKAP-K2; MAPKAP-K2, 1 μM): 122%
remaining activity at 100 µM (MAPKAP-K2; MAPKAP-K2, 100 μM): 66%
remaining activity at 1 µM (SIK2; SIK2, 1 μM): 102%
remaining activity at 100 µM (SIK2; SIK2, 100 μM): 10%
Remaining protein kinase activity (CHK1; 1 μM): 101%
Remaining protein kinase activity (CHK1; 100 μM): 86%
remaining activity at 1 µM (SRPK1; SRPK1, 1 μM): 108%
remaining activity at 100 µM (SRPK1; SRPK1, 100 μM): 55%
remaining activity at 1 µM (PLK1; PLK1, 1 μM): 99%
remaining activity at 100 µM (PLK1; PLK1, 100 μM): 73%
remaining activity at 1 µM (PKBb; PKBb, 1 μM): 123%
remaining activity at 100 µM (PKBb; PKBb, 100 μM): 15%
Remaining protein kinase activity (MST3; 1 μM): 114%
Remaining protein kinase activity (MST3; 100 μM): 96%
remaining activity at 1 µM (EF2K; EF2K, 1 μM): 112%
remaining activity at 100 µM (EF2K; EF2K, 100 μM): 84%
remaining activity at 1 µM (IGF-1R; IGF-1R, 1 μM): 96%
remaining activity at 100 µM (IGF-1R; IGF-1R, 100 μM): 68%
remaining activity at 1 µM (Aurora B; Aurora B, 1 μM): 107%
remaining activity at 100 µM (Aurora B; Aurora B, 100 μM): 21%
